Reference: US12435061B2 (priority 2020, dated 2025)
pIC50: −log10 of the molar value. ≈ marks a conversion by molar mass, not a printed value. Structures can show the parent of a compound that is named as a salt. Where two headings read alike, the source gives them in different places.

How the values were obtained:
[1] = molecular target: hTRPV3 (Homo sapiens (Human), UniProt Q8NET8); assay: Whole-cell patch clamp, hTRPV3 Phase 1 / Phase 2 currents; assay type: cell-based; settings: for pIC50: inward
Procedure, shortened: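 Whole-cell recordings on induced TRPV3 cells replated on coverslips, held at −40 mV with 400 ms ramps from −120 to +100 mV every 5 s; currents read at −80 and +80 mV. Ringer's external solution; current activated by heating to ≥28 °C or 20 μM 2-APB.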

[2] = Aqueous solubility assay in Normal Ringer Solution; settings: Normal Ringer Solution; for solubility at 40 min: saline or isotonic, kinetic from dmso stock; for Solubility Ringer (nM): room temperature
Description: Following vortex and incubation for a sufficient time (e.g. 40 minutes at room temperature), solutions were filtered, quenched with acetonitrile, and analyzed by Liquid Chromotography. Solubility Limits were determined by comparison to a standard curve.

[3] = read-out: hTRPV3 (nM) (Phase 2)
[4] = Phase 1 current, whole-cell patch clamp, read-out: hTRPV3 Patch P1 Inwd
[5] = Phase 1 current, read-out: hTRPV3 (nM) (Phase 1)
[6] = Phase 2 current, whole-cell patch clamp, read-out: hTRPV3 Patch P2 Inwd
[7] = Phase 2 current, read-out: hTRPV3 (nM) (Phase 2)

Sequence of hTRPV3 (Q8NET8 whole entry): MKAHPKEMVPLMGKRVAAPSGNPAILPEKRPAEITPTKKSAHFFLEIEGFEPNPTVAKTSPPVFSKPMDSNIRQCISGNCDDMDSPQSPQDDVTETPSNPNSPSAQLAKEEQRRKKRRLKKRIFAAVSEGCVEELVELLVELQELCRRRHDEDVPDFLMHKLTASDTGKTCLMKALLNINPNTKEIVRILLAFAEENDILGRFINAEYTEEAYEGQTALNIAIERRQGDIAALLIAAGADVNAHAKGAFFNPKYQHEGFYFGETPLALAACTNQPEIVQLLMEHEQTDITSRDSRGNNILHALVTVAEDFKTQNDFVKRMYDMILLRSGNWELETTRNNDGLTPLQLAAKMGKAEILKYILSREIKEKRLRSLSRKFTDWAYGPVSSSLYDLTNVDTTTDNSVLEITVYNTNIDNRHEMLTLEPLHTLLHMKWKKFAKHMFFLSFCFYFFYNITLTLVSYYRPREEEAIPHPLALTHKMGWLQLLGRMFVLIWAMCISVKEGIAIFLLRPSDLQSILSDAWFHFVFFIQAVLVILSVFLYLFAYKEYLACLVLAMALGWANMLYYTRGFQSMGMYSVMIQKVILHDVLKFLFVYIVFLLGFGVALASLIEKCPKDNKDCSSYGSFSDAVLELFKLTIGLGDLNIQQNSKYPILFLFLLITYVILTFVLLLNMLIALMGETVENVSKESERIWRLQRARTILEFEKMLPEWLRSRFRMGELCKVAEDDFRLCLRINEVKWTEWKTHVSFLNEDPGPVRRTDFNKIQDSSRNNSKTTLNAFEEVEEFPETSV

Compound	solubility at 40 min [2]	pIC50 [1, 4]	IC50 [1, 5]	pIC50 [1, 6]	IC50 [1, 7]	also measured
Cl.NC(=O)c1cc(-c2cccnc2)ccc1N1CC[C@@H](Oc2ncccc2Cl)C1 [Compound 1-74, (R)-2-(3-(3-chloropyridin-2-yloxy)pyrrolidin-1-yl)-5-(pyridin-3-yl)benzamide hydrochloride]	> 13.5 µM	–	–	–	–	IC50 ([1]; hTRPV3 Patch P2 Inwd (nM)): > 1000 nM; IC50 [1, 3]: ~5040 nM
NC(=O)c1cc(-c2ccccc2)ccc1N1CC[C@@H](Oc2ncccc2Cl)C1 [Compound 1-75, (R)-4-(3-(3-chloropyridin-2-yloxy)pyrrolidin-1-yl)biphenyl-3-carboxamide]	0.32 µM (≈ 0.126 µg/mL)	< 6.00	~2300 nM	6.00 to 7.00	342 nM	–
CC(C)Oc1ccccc1N1CC[C@H](Oc2ccc3cc(Cl)ccc3n2)C1 [Compound 1-76, (S)-6-chloro-2-(1-(2-isopropoxyphenyl)pyrrolidin-3-yloxy)quinoline]	–	< 6.00	> 3200 nM	< 6.00	~4600 nM	Solubility Ringer (nM) [2]: BLQ
NC(=O)c1cc(-c2cccnc2)ccc1N1CC[C@H](Oc2ccc(C(F)(F)F)cn2)C1 [Compound 1-80, (S)-5-(pyridin-3-yl)-2-(3-(5-(trifluoromethyl)pyridin-2-yloxy)pyrrolidin-1-yl)benzamide]	> 3.3 µM	< 6.00	> 3200 nM	< 6.00	~5900 nM	–
NC(=O)c1cc(-c2ccccn2)ccc1N1CC[C@H](Oc2ccc(C(F)(F)F)cn2)C1 [Compound 1-81, (S)-5-(pyridin-2-yl)-2-(3-(5-(trifluoromethyl)pyridin-2-yloxy)pyrrolidin-1-yl)benzamide]	~1.4 µM (≈ 0.6 µg/mL)	< 6.00	> 3200 nM	< 6.00	2190 nM	–
NC(=O)c1cc(-c2ccncc2)ccc1N1CC[C@H](Oc2ccc(C(F)(F)F)cn2)C1 [Compound 1-83, (S)-5-(pyridin-4-yl)-2-(3-(5-(trifluoromethyl)pyridin-2-yloxy)pyrrolidin-1-yl)benzamide]	> 3.9 µM	< 6.00	2840 nM	< 6.00	3350 nM	–
N#Cc1cc(-c2ccccc2)ncc1N1CC[C@@H](Oc2ccc(C(F)(F)F)cn2)C1 [Compound 1-94]	–	–	–	–	~117 nM	hTRPV3 (nM) (Phase 2) ([1]; Phase 2 current): Incomplete Block; pIC50 ([1]; Phase 2 current, numeric value printed in cell (flagged), read-out: hTRPV3 Patch P2 Inwd): ~6.93; Solubility Ringer (nM) [2]: BLQ
NS(=O)(=O)c1cc(-c2ccccc2)ccc1N1CC[C@@H](Oc2ccc(C(F)(F)F)cn2)C1 [Compound 1-102]	~0.23 µM (≈ 0.107 µg/mL)	< 6.00	–	< 6.00	–	–
NCc1cc(-c2ccccc2)ccc1N1CC[C@@H](Oc2ccc(C(F)(F)F)cn2)C1 [Compound 1-109, (R)-(4-(3-(5-(trifluoromethyl)pyridin-2-yloxy)pyrrolidin-1-yl)biphenyl-3-yl)methanamine hydrochloride]	> 2.95 µM	–	–	–	–	IC50 ([1]; hTRPV3 Patch P1 Inwd (nM)): > 1000 nM; IC50 ([1]; hTRPV3 Patch P2 Inwd (nM)): > 1000 nM; IC50 ([1]; read-out: hTRPV3 (nM) (Phase 1)): 1870 nM; IC50 [1, 3]: 1930 nM
OCc1cc(-c2ccccc2)ccc1N1CC[C@@H](Oc2ccc(C(F)(F)F)cn2)C1 [Compound 1-110, (R)-(4-(3-(5-(trifluoromethyl)pyridin-2-yloxy)pyrrolidin-1-yl)biphenyl-3-yl)methanol]	–	6.00 to 7.00	710 nM	6.00 to 7.00	685 nM	Solubility Ringer (nM) [2]: BLQ
N#Cc1ccc(O[C@H]2CCN(c3ccc(-c4ccccc4)cc3CO)C2)nc1 [Compound 1-143, (S)-6-(1-(3-(hydroxymethyl)biphenyl-4-yl)pyrrolidin-3-yloxy)nicotinonitrile]	1.4 µM (≈ 0.52 µg/mL)	6.00 to 7.00	337 nM	–	–	–
N#Cc1ccccc1-c1ccc(N2CC[C@H](Oc3ccc(C(F)(F)F)cn3)C2)c(CO)c1 [Compound 1-155]	–	6.00 to 7.00	–	–	–	Solubility Ringer (nM) [2]: BLQ
OCc1cc(-c2ccccc2)ncc1N1CC[C@H](Oc2ccc(C(F)(F)F)cn2)C1 [Compound 1-158]	~2 µM (≈ 0.831 µg/mL)	6.00 to 7.00	773 nM	6.00 to 7.00	747 nM	–
NC(=O)c1ccccc1-c1ccc(N2CC[C@H](Oc3ccc(C(F)(F)F)cn3)C2)c(CO)c1 [Compound 1-159, (S)-3′-(hydroxymethyl)-4′-(3-(5-(trifluoromethyl)pyridin-2-yloxy)pyrrolidin-1-yl)biphenyl-2-carboxamide]	> 16.6 µM	< 6.00	> 3200 nM	< 6.00	> 3200 nM	–
CN(C)C(=O)c1ccccc1-c1ccc(N2CC[C@H](Oc3ccc(C(F)(F)F)cn3)C2)c(CO)c1 [Compound 1-167, (S)-3′-(hydroxymethyl)-N,N-dimethyl-4′-(3-(5-(trifluoromethyl)pyridin-2-yloxy)pyrrolidin-1-yl)biphenyl-2-carboxamide]	> 12.6 µM	< 6.00	~1290 nM	< 6.00	> 3200 nM	–
CC(O)c1ccccc1-c1ccc(N2CC[C@H](Oc3ccc(C(F)(F)F)cn3)C2)c(CO)c1 (stereo partly drawn) [Compound 1-171, 1-(3′-(hydroxymethyl)-4′-((S)-3-(5-(trifluoromethyl)pyridin-2-yloxy)pyrrolidin-1-yl)biphenyl-2-yl)ethanol]	> 5.35 µM	6.00 to 7.00	740 nM	6.00 to 7.00	636 nM	–
OCc1ccccc1-c1ccc(N2CC[C@H](Oc3ccc(C(F)(F)F)cn3)C2)c(CO)c1 [Compound 1-174, (S)-(4′-(3-(5-(trifluoromethyl)pyridin-2-yloxy)pyrrolidin-1-yl)biphenyl-2,3′-diyl)dimethanol]	> 0.67 µM	6.00 to 7.00	> 320 nM	< 6.00	> 3200 nM	–
OC[C@@H]1C[C@@H](Oc2ccc(C(F)(F)F)cn2)CN1c1ccc(-c2ccccc2)cc1 [Compound 1-175]	~0.68 µM (≈ 0.282 µg/mL)	< 6.00	> 3200 nM	< 6.00	> 3200 nM	–
N#Cc1ccccc1-c1ccc(N2CC[C@H](Oc3ccc(C(F)(F)F)cn3)C2)c(CO)n1 [Compound 1-197, (S)-2-(6-(hydroxymethyl)-5-(3-(5-(trifluoromethyl)pyridin-2-yloxy)pyrrolidin-1-yl)pyridin-2-yl)benzonitrile]	~0.4 µM (≈ 0.176 µg/mL)	7.00 to 8.00	~38.5 nM	–	–	–
Cc1ccc(O[C@H]2CCN(c3ccc(Oc4ccccc4C)nc3CO)C2)nc1 [Compound 1-203, (S)-(3-(3-(5-methylpyridin-2-yloxy)pyrrolidin-1-yl)-6-(o-tolyloxy)pyridin-2-yl)methanol]	~1.4 µM (≈ 0.548 µg/mL)	< 6.00	~5050 nM	< 6.00	3270 nM	–
CCc1ccccc1-c1ccc(N2CC[C@H](Oc3ncccc3F)C2)c(CO)n1 [Compound 1-204, (S)-(6-(2-ethylphenyl)-3-(3-(3-fluoropyridin-2-yloxy)pyrrolidin-1-yl)pyridin-2-yl)methanol]	> 1.8 µM	< 6.00	2670 nM	–	–	–
COc1ccccc1-c1ccc(N2CC[C@H](Oc3ccc(F)cn3)C2)c(CO)n1 [Compound 1-209, (S)-(3-(3-(5-fluoropyridin-2-yloxy)pyrrolidin-1-yl)-6-(2-methoxyphenyl)pyridin-2-yl)methanol]	~2.3 µM (≈ 0.909 µg/mL)	< 6.00	3470 nM	–	–	–
OCc1cc(Oc2cccc(Cl)c2)ccc1N1CC[C@H](Oc2ncccc2Cl)C1 [Compound 1-248, (S)-(5-(3-chlorophenoxy)-2-(3-(3-chloropyridin-2-yloxy)pyrrolidin-1-yl)phenyl)methanol]	–	7.00 to 8.00	12.3 nM	–	–	Solubility Ringer (nM) [2]: BLQ
OCc1cc(Oc2ccc(Cl)cc2)ccc1N1CC[C@H](Oc2ncccc2Cl)C1 [Compound 1-249, (S)-(5-(4-chlorophenoxy)-2-(3-(3-chloropyridin-2-yloxy)pyrrolidin-1-yl)phenyl)methanol]	–	7.00 to 8.00	22.1 nM	–	–	Solubility Ringer (nM) [2]: BLQ
Cc1ccc(Oc2ccc(N3CC[C@H](Oc4ncccc4Cl)C3)c(CO)c2)cc1 [Compound 1-250, (S)-(2-(3-(3-chloropyridin-2-yloxy)pyrrolidin-1-yl)-5-(p-tolyloxy)phenyl)methanol]	~0.1 µM (≈ 0.0411 µg/mL)	> 8.00	8.42 nM	–	–	–
CCc1ccccc1C(O)c1ccc(N2CC[C@H](Oc3ncccc3Cl)C2)c(CO)c1 (stereo partly drawn) [Compound 1-257, (4-((S)-3-(3-chloropyridin-2-yloxy)pyrrolidin-1-yl)-3-(hydroxymethyl)phenyl)(2-ethylphenyl)methanol]	> 6.6 µM	6.00 to 7.00	1060 nM	< 6.00	1110 nM	–
(3-(4-(4-chloro-3-ethylpyridin-2-yloxy)-2-(hydroxymethyl)phenyl)pyrrolidin-1-yl)(5-fluoropyridin-2-yl)methanone [Compound 2-43]	–	< 6.00	–	–	–	IC50 ([1]; Phase 1 current, human TRPV3, read-out: hTRPV3 (nM) Phase 1): > 3200 nM
(S)-(6-(2-ethylphenoxy)-3-(3-(5-(trifluoromethyl)pyridin-2-yloxy)pyrrolidin-1-yl)pyridin-2-yl)methanol [Compound 1-212]	–	< 6.00	> 3200 nM	–	–	–
